Results reported in patent US20230220035A1 (DONG-A ST CO., LTD., published 2023).
Read-outs that look alike come from different tables or passages of the source.

Columns and labels:
in vivo [1] = conditions: cynomolgus monkey, sc
Source text: (§1) Cynomolgus monkeys were used to evaluate the pharmacokinetics in monkeys of the acylated oxyntomodulin peptide analogs according to the present invention.

in vivo [2] = conditions: mouse
Source text: (§2) ICR mice were used to evaluate the pharmacokinetics in mice of the acylated oxyntomodulin peptide analogs according to the present invention.

GLP-1 receptor [3] = molecular target: T1, GLP-1 receptor (Homo sapiens, UniProt P43220); assay: Human GLP-1 receptor activation assay (CRE-luciferase); assay type: cell-based; design: host or cells: CHO-K1
Target sequence in this assay (P43220 24-463): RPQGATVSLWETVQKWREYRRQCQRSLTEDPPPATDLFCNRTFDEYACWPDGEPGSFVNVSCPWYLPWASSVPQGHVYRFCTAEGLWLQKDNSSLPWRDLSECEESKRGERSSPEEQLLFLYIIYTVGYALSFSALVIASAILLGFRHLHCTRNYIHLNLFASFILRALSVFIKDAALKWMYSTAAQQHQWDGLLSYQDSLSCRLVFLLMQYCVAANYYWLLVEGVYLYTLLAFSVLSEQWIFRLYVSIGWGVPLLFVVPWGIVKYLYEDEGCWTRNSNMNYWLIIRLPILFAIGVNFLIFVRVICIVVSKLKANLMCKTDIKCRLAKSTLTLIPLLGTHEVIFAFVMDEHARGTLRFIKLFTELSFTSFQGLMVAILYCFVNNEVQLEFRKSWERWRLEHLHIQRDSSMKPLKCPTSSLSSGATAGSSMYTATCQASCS

glucagon receptor [4] = molecular target: T2, glucagon receptor (Homo sapiens, UniProt P47871); assay: Human glucagon receptor activation assay (CRE-luciferase); assay type: cell-based; design: host or cells: CHO-K1; conditions: CHO-K1 cells transiently transfected
Target sequence in this assay (P47871 26-477): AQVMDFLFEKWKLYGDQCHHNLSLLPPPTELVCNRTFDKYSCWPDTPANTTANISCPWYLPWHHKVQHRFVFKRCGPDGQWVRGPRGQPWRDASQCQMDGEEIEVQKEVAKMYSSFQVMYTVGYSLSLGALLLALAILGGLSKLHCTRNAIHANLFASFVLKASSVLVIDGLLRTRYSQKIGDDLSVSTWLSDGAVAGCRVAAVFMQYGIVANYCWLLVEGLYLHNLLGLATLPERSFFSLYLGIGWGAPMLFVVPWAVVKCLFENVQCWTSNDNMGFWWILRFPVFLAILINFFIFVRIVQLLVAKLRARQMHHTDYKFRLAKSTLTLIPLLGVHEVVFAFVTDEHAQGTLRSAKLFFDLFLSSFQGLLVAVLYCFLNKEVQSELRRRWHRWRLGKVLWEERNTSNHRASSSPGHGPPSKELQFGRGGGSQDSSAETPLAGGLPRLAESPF

glucagon receptor [5] = molecular target: T2, glucagon receptor; conditions: from Korean Patent Application No. 2017-0103798 / 2018-0095717; cited from earlier work
Target sequence in this assay (P47871 26-477, species assumed): as the sequence (P47871 26-477) above

GLP-1 receptor [6] = molecular target: T1, GLP-1 receptor; conditions: read-out: EC50 to the GLP-1 receptor; from Korean Patent Application No. 2017-0103798 / 2018-0095717; cited from earlier work
Target sequence in this assay (P43220 24-463, species assumed): as the sequence (P43220 24-463) above

[7] = Single-dose pharmacokinetic profile in mice; conditions: mouse
Source text: as §2

[8] = Single-dose pharmacokinetic profile in monkeys; conditions: cynomolgus monkey, plasma, sc, 100 nmmol/kg, Monkey PK (S.C. half-life), single S.C. dose 100 nmmol/kg
Source text: as §1

half-life (in vivo [1]; Monkey PK (S.C. half-life)) [h]	half-life (in vivo [1]; monkey PK half-life) [h]	half-life (in vivo [2]; ICR, sc, Mouse PK (S.C. half-life)) [h]	half-life (in vivo [2]; ICR, sc, half-life in mice) [h]	half-life (in vivo [2]; half-life, pharmacokinetic evaluation in mice (background)) [h]	Emax (GLP-1 receptor [3]; CHO-K1, 6 h, read-out: GLP-1 receptor Maximum activation (% vs GLP-1)) [%]	EC50 (GLP-1 receptor [3]; CHO-K1 cells transiently transfected, luciferase, 6 hours, 0.1% BSA) [nM]	Emax (glucagon receptor [4]; 6 h, relative to glucagon, read-out: GCG receptor Maximum activation (% vs GCG)) [%]	EC50 (glucagon receptor [4]; 6 hours, 0.1% BSA, read-out: GCG receptor EC50) [nM]	half-life ([7]; ICR, plasma, sc, 30 nmmol/kg, Mouse PK (S.C. half-life), ICR mice, single S.C. dose 30 nmmol/kg) [h]	half-life ([7]; in vivo, half-life, pharmacokinetic evaluation in mice (background), mice, dose not given) [h]	half-life [8] [h]	SMILES	EC50 (glucagon receptor [5]) [nM]	EC50 (GLP-1 receptor [6]) [nM]
> 24	> 24	> 6	> 6	3.3	98.3	0.1 to 1	98.3	0.1 to 1	–	–	–	CCCCCCCCCCCCCCCCCC(=O)N[C@@H](CCC(=O)NCCOCCOCC(=O)NCCOCCOCC(=O)NCCCC[C@H](NC(=O)[C@H](CC(=O)O)NC(=O)[C@H](CO)NC(=O)[C@@H](NC(=O)[C@H](Cc1ccccc1)NC(=O)[C@@H](NC(=O)CNC(=O)[C@H](CCC(N)=O)NC(=O)C(C)(C)NC(=O)[C@@H](N)Cc1c[nH]cn1)[C@@H](C)O)[C@@H](C)O)C(=O)N[C@@H](CO)C(=O)N[C@@H](CCCCN)C(=O)N[C@@H](Cc1ccc(O)cc1)C(=O)N[C@@H](CC(C)C)C(=O)N[C@@H](CC(=O)O)C(=O)NC(C)(C)C(=O)N[C@@H](CCCNC(=N)N)C(=O)N[C@@H](CCCNC(=N)N)C(=O)N[C@@H](C)C(=O)N[C@@H](CCC(N)=O)C(=O)N[C@@H](CC(=O)O)C(=O)N[C@@H](Cc1ccccc1)C(=O)N[C@H](C(=O)N[C@@H](CCC(N)=O)C(=O)N[C@@H](Cc1c[nH]c2ccccc12)C(=O)N[C@@H](CC(C)C)C(=O)N[C@@H](CCSC)C(=O)N[C@@H](CC(N)=O)C(=O)N[C@H](C(=O)N[C@@H](CCCCN)C(=O)N[C@@H](CCC(=O)O)C(=O)N[C@@H](Cc1ccc(O)cc1)C(=O)N[C@@H](CCC(=O)O)C(=O)N[C@@H](CCCCNC(=O)CCCCCCCCCCCCCCCCC(=O)O)C(=O)N[C@@H](CCC(=O)O)C(=O)N[C@@H](Cc1ccc(O)cc1)C(=O)N[C@@H](CCC(=O)O)C(=O)O)[C@@H](C)O)C(C)C)C(=O)O [Compound 3]	< 0.01	< 0.01
–	–	–	–	–	–	–	–	–	< 6	4	< 6	CCCCCCCCCCCCCCCC(=O)N[C@@H](CCC(=O)NCCCC[C@H](NC(=O)[C@H](CC(=O)O)NC(=O)[C@H](CO)NC(=O)[C@@H](NC(=O)[C@H](Cc1ccccc1)NC(=O)[C@@H](NC(=O)CNC(=O)[C@H](CCC(N)=O)NC(=O)[C@H](CO)NC(=O)[C@@H](N)Cc1c[nH]cn1)[C@@H](C)O)[C@@H](C)O)C(=O)N[C@@H](CO)C(=O)N[C@@H](CCC(=O)O)C(=O)N[C@@H](Cc1ccc(O)cc1)C(=O)N[C@@H](CC(C)C)C(=O)N[C@@H](CC(=O)O)C(=O)N[C@@H](CO)C(=O)N[C@@H](CCC(=O)O)C(=O)N[C@@H](CCCNC(=N)N)C(=O)N[C@@H](C)C(=O)N[C@@H](CCCNC(=N)N)C(=O)N[C@@H](CC(=O)O)C(=O)N[C@@H](Cc1ccccc1)C(=O)N[C@H](C(=O)N[C@@H](C)C(=O)N[C@@H](Cc1c[nH]c2ccccc12)C(=O)N[C@@H](CC(C)C)C(=O)N[C@@H](CCC(=O)O)C(=O)N[C@@H](C)C(=O)NCC(=O)NCC(=O)O)C(C)C)C(=O)O [MEDI0382]	–	–
